The text below walks through data of patent US10494343B2, “Organic compound, near-infrared fluorescent constant medium containing same, and method for nano-granulating constant medium” (COLLEGE OF MEDICINE POCHON CHA UNIV. INDUSTRY—ACADEMIC …, priority 2015, dated 2019).

A short description of the first series: Absorption/emission wavelength of the compounds (Table 1). It is filed as physicochemical. Conditions: DMSO.
Regarding `CCN1/C(=C/C=C2\CC(C(C)(C)C)CC(/C=C/C3=[N+](CC)c4ccc5cc(OC)ccc5c4C3(C)C)=C2Sc2ccc(C(=O)NCCN)cc2)C(C)(C)c2c1ccc1cc(OC)ccc21.[I-]` (stereo not shown) [Compound L, 2-((E)-2-((E)-2-(4-(2-aminoethylcarbamoyl)phenylthio)-5-tert-butyl-3-((E)-2-(3-ethyl-7-methoxy-1,1-dimethyl-1H-benzo[e]indol-2(3H)-ylidene)ethylidene)cyclohex-1-enyl)vinyl)-3-ethyl-7-methoxy-1,1-dimethyl-1H-benzo[e]indolium iodide], the Absorption wavelength came out at 857 nm and the Emission wavelength was determined as 896 nm. On the same counts, the results for “3-ethyl-2-((E)-2-((E)-3-((E)-2-(3-ethyl-7-methoxy-1,1-dimethyl-1H-benzo[e]indol-2(3H)-ylidene)ethylidene)-2-(4-(2-isothiocyantoethylcarbamoyl)phenylthio)-5-(1-methoxy-2-methyl-1-oxopropan-2-yl)cyclohex-1-enyl) vinyl)-7-methoxy-1,1-dimethyl-1H-benzo[e]indolium iodide [Compound J]” are 856 nm and 905 nm. The compound `CCN1/C(=C/C=C2\CC(c3ccc(C(=O)OC)cc3)CC(/C=C/C3=[N+](CC)c4ccc5cc(OC)ccc5c4C3(C)C)=C2Cl)C(C)(C)c2c1ccc1cc(OC)ccc21.[I-]` (stereo not shown) [C, 2-((E)-2-((E)-2-chloro-3-((E)-2-(3-ethyl-7-methoxy-1,1-dimethyl-1H-benzo[e]indol-2(3H)-ylidene)ethylidene)-5-(4-(methoxycarbonyl)phenyl)cyclohex-1-enyl)vinyl)-3-ethyl-7-methoxy-1,1-dimethyl-1H-benzo[e]indolium iodide] yielded an Absorption wavelength of 843 nm and an Emission wavelength of 876 nm.

Compound `CCN1/C(=C/C=C2\CC(C(C)(C)C(=O)OC)CC(/C=C/C3=[N+](CC)c4ccc5cc(OC)ccc5c4C3(C)C)=C2Sc2ccc(C(=O)NCCN)cc2)C(C)(C)c2c1ccc1cc(OC)ccc21.[I-]` (stereo not shown) [Compound I, 2-((E)-2-((E)-2-(4-(2-aminoethylcarbamoyl)phenylthio)-3-((E)-2-(3-ethyl-7-methoxy-1,1-dimethyl-1H-benzo[e]indol-2(3H)-ylidene)ethylidene)-5-(1-methoxy-2-methyl-1-oxopropan-2-yl)cyclohex-1-enyl)vinyl)-3-ethyl-7-methoxy-1,1-dimethyl-1H-benzo[e]indolium iodide] registered an Absorption wavelength of 857 nm and an Emission wavelength of 889 nm. For the compound `CCN1/C(=C/C=C2\CCCC(/C=C/C3=[N+](CC)c4ccc5cc(OC)ccc5c4C3(C)C)=C2Sc2ccc(C(=O)NCCN)cc2)C(C)(C)c2c1ccc1cc(OC)ccc21.[I-]` [Compound K, 2-((E)-2-((E)-2-(4-(2-aminoethylcarbamoyl)phenylthio)-3-((E)-2-(3-ethyl-7-methoxy-1,1-dimethyl-1H-benzo[e]indol-2(3H)-ylidene)ethylidene)cyclohex-1-enyl)vinyl)-3-ethyl-7-methoxy-1,1-dimethyl-1H-benzo[e]indolium iodide], the Absorption wavelength came out at 857 nm and the Emission wavelength was found to be 901 nm. On the same counts, the results for `CCN1/C(=C/C=C2\CC(C(C)(C)C(=O)OC)CC(/C=C/C3=[N+](CC)c4ccc5cc(S(=O)(=O)[O-])ccc5c4C3(C)C)=C2Sc2ccc(C(=O)O)cc2)C(C)(C)c2c1ccc1cc(S(=O)(=O)O)ccc21` (stereo not shown) [Compound G, 2-((E)-2-((E)-2-(4-carboxyphenylthio)-3-((E)-2-(3-ethyl-1,1-dimethyl-7-sulfo-1H-benzo[e]indol-2(3H)-ylidene)ethylidene)-5-(1-methoxy-2-methyl-1-oxopropan-2-yl)cyclohex-1-enyl)vinyl)-3-ethyl-1,1-dimethyl-1H-benzo[e]indolium-7-sulfonate] are 849 nm and 883 nm.

On to `CCN1/C(=C/C=C2\CC(C(C)(C)C(=O)OC)CC(/C=C/C3=[N+](CC)c4ccc5cc(OC)ccc5c4C3(C)C)=C2Cl)C(C)(C)c2c1ccc1cc(OC)ccc21.[I-]` (stereo not shown) [Compound F, 2-((E)-2-((E)-2-chloro-3-((E)-2-(3-ethyl-7-methoxy-1,1-dimethyl-1H-benzo[e]indol-2(3H)-ylidene)ethylidene)-5-(1-methoxy-2-methyl-1-oxopropan-2-yl)cyclohex-1-enyl)vinyl)-3-ethyl-7-methoxy-1,1-dimethyl-1H-benzo[e]indolium iodide], for which the Absorption wavelength is listed as 843 nm and the Emission wavelength was found to be 881 nm. Compound `CCN1/C(=C/C=C2\CC(C(C)(C)C(=O)OC)CC(/C=C/C3=[N+](CC)c4ccc5cc(Br)ccc5c4C3(C)C)=C2Cl)C(C)(C)c2c1ccc1cc(Br)ccc21.[I-]` (stereo not shown) [Compound E, 7-bromo-2-((E)-2-((E)-3-((E)-2-(7-bromo-3-ethyl-1,1-dimethyl-1H-benzo[e]indol-2(3H)-ylidene)ethylidene)-2-chloro-5-(1-methoxy-2-methyl-1-oxopropan-2-yl)cyclohex-1-enyl)vinyl)-3-ethyl-1,1-dimethyl-1H-benzo[e]indolium iodide] gave an Absorption wavelength of 833 nm and an Emission wavelength of 865 nm.

Turning to `CCN1/C(=C/C=C2\CC(c3ccc(C(=O)OC)cc3)CC(/C=C/C3=[N+](CC)c4ccc5cc(Br)ccc5c4C3(C)C)=C2Cl)C(C)(C)c2c1ccc1cc(Br)ccc21.[I-]` (stereo not shown) [Compound B, 7-bromo-2-((E)-2-((E)-3-((E)-2-(7-bromo-3-ethyl-1,1-dimethyl-1H-benzo[e]indol-2(3H)-ylidene)ethylidene)-2-chloro-5-(4-(methoxycarbonyl)phenyl)cyclohex-1-enyl)vinyl)-3-ethyl-1,1-dimethyl-1H-benzo[e]indolium iodide], the Absorption wavelength is reported as 831 nm and the Emission wavelength is recorded as 863 nm. Turning to `CCN1/C(=C/C=C2\CC(C(C)(C)C(=O)OC)CC(/C=C/C3=[N+](CC)c4ccc5cc(OC)ccc5c4C3(C)C)=C2Sc2ccc(C(=O)[O-])cc2)C(C)(C)c2c1ccc1cc(OC)ccc21` (stereo not shown) [Compound H, 4-((E)-6-((E)-2-(3-ethyl-7-methoxy-1,1-dimethyl-1H-benzo[e]indol-2(3H)-ylidene)ethylidene)-2-((E)-2-(3-ethyl-7-methoxy-1,1-dimethyl-1H-benzo[e]indolium-2-yl)vinyl)-4-(1-methoxy-2-methyl-1-oxopropan-2-yl)cyclohex-1-enylthio)benzoate], the Absorption wavelength came to 857 nm and the Emission wavelength was found to be 900 nm. In turn, `CCN1/C(=C/C=C2\CC(C(C)(C)C(=O)OC)CC(/C=C/C3=[N+](CC)c4ccc5cc(S(=O)(=O)O)ccc5c4C3(C)C)=C2Cl)C(C)(C)c2c1ccc1cc(S(=O)(=O)O)ccc21` (stereo not shown) [Compound D, 2-((E)-2-((E)-2-chloro-3-((E)-2-(3-ethyl-1,1-dimethyl-7-sulfo-1H-benzo[e]indol-2(3H)-ylidene)ethylidene)-5-(1-methoxy-2-methyl-1-oxopropan-2-yl)cyclohex-1-enyl)vinyl)-3-ethyl-1,1-dimethyl-1H-benzo[e]indolium-7-sulfonate] yielded an Absorption wavelength of 833 nm and an Emission wavelength of 861 nm. `CCN1/C(=C/C=C2\CC(c3ccc(C(=O)OC)cc3)CC(/C=C/C3=[N+](CC)c4ccc5cc(S(=O)(=O)O)ccc5c4C3(C)C)=C2Cl)C(C)(C)c2c1ccc1cc(S(=O)(=O)O)ccc21` (stereo not shown) [Compound A, 2-((E)-2-((E)-2-chloro-3-((E)-2-(3-ethyl-1,1-dimethyl-7-sulfo-1H-benzo[e]indo-1-2(3H)-ylidene)ethylidene)-5-(4-(methoxycarbonyl)phenyl)cyclohex-1-enyl)vinyl)-3-ethyl-1,1-dimethyl-1H-benzo[e]indolium-7-sulfonate] came in with an Absorption wavelength of 833 nm and an Emission wavelength of 865 nm.

A further series can be described thus: Test Example 1: optical properties of contrast medium according to Preparation Example 2. It is filed as physicochemical. More on the design: unit not given here. Conditions: conventional contrast medium, solvent not stated. Here is the method: Contrast media were prepared by dissolving compound H per se according to Example 8 in various organic solvents without manufacturing core-shell nanoparticles.
Test Example 1—Evaluation on Optical Properties of Contrast Medium According to Preparation Example 2
The absorption intensity, absorption wavelength, emission wavelength, and quantum yield (ϕf) of the contrast media prepared in Preparation Example 2 are shown in the Table 2.
On to `CC1(C)C(/C=C/C=C/C=C/C=C2\N(CCCCS(=O)(=O)O)c3ccc4ccccc4c3C2(C)C)=[N+](CCCCS(=O)(=O)[O-])c2ccc3ccccc3c21` [indocyanine green], for which the “quantum efficiency (χf)” value was determined as 2.58.
